The record followed here is ChEMBL document CHEMBL3853265 (Medchemcomm, 2016).

A short description of series [1]: Half life in dog at 1 mg/kg, iv and 3 mg/kg, po. Format: ADME, organism-based, Canis lupus familiaris. Conditions: in vivo.
Series [2] in a line: Volume of distribution at steady state in dog at 1 mg/kg, iv and 3 mg/kg, po. The settings on record: in vivo, read-out: Vdss. The format is ADME, organism-based, Canis lupus familiaris.
Another series concerns Rattus norvegicus. The series is described as follows: Toxicity in Wistar Han rat assessed as centrilobular hepatocellular hypertrophy at 100 mg/kg/day, po administered for 14 days. Format: organism-based. Conditions: in vivo, 336 h.
A short description of series [3]: Average plasma concentration in Wistar Han rat at 100 mg/kg, po administered as single dose measured on day 14. Format: ADME, organism-based. Conditions: in vivo.
In a further series the target is T1, Cytochrome P450 1A2 (Homo sapiens, UniProt P05177).
T1 sequence (P05177 whole entry): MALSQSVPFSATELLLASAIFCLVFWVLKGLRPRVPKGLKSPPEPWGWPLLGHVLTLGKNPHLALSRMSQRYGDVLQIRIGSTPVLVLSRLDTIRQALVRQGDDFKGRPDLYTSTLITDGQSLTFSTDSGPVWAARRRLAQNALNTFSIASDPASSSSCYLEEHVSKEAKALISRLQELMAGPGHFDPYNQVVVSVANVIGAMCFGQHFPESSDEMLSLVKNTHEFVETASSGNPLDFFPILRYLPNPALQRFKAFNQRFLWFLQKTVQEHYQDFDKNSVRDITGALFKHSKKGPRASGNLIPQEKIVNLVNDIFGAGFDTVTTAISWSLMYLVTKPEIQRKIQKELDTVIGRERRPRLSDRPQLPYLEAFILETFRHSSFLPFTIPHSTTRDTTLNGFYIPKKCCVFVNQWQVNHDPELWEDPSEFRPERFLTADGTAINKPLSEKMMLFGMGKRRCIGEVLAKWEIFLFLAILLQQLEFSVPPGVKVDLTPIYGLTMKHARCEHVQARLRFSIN
Kind of series: Inhibition of CYP1A2 (unknown origin). The format is ADME.

The nature of series [4]: Plasma clearance in dog at 0.363 mg/kg, iv and 0.737 mg/kg, po. Format: ADME, organism-based, Canis lupus familiaris.
Series [5] can be described thus: Drug metabolism in dog liver microsomes. The format is ADME, Canis lupus familiaris. In general terms: Microsomes from liver hold many membrane-bound enzymes, among them those of drug oxidation.
Series [6] can be described thus: Drug metabolism in human hepatocytes assessed as monooxidation and glucuronidation. Format: ADME, cell-based, Hepatocyte.
The nature of series [7]: Unbound Cmax in Wistar Han rat at 10 mg/kg, po […] measured on day 14. The settings on record: in vivo. The format is ADME, organism-based.
Series [8] can be described thus: Toxicity in po dosed dog assessed as drug tolerance administered as single dose. Format: organism-based, Canis lupus familiaris. Conditions: in vivo.
Series [9] can be described thus: Toxicity in dog assessed as increase in body temperature at 100 mg/kg, po administered as single dose. Conditions: in vivo. The format is organism-based, Canis lupus familiaris.
The nature of series [10]: Toxicity in dog assessed as transient panting at 10 mg/kg, po administered as single dose measured up to 30 hrs post dose. The settings on record: in vivo. Format: organism-based, Canis lupus familiaris.
Series [11] can be described thus: Toxicity in dog assessed as appearance of red mucous membranes of the gum at 30 mg/kg, po administered as single dose. Conditions: in vivo. Format: organism-based, Canis lupus familiaris.

Bounds are passed on as bounds.

Regarding `O=S(=O)(Nc1cncc(C(F)(F)F)c1)c1ccccc1C(F)(F)F`, the half-life in [1] was 2.4 h. The Vd in series [2] turned out to be 0.18 L/kg. The Activity result in the series with Rattus norvegicus was “Non-Toxic”. Also, the Cave in series [3] was 807 nM.

`O=S(=O)(Nc1ccc(C(F)(F)F)nc1)c1ccccc1C(F)(F)F` registered a half-maximal inhibitory concentration (IC50) on Cytochrome P450 1A2 of over 30 µM. This compound yielded a clearance in series [4] of 20.2 mL/day/kg. Further, the Drug metabolism result in [5] is “Metabolite_Notdetected”; in series [6], “Metabolite_Detected”. Besides, in [7], the fCmax turned out to be 530 nM. Further, the Activity result is “<= 30 mg kg-1” in series [8], “Toxic” in [9], “Toxic” in series [10] and “Toxic” in [11].

By half-life is commonly meant the time in which the quantity being followed falls by half. High values mean slow decline, low ones rapid decline. For orientation: IC50 means the point on the concentration scale where inhibition reaches its midpoint. A higher IC50 goes with weaker potency in that assay.
